In BigSolDB 2.1:

CCCCc1nc(Cl)c(C(=O)OCOC(=O)OC(C)C)n1Cc1ccc(-c2ccccc2-c2nn[nH]n2)cc1
solubility (mole fraction)
Conditions	278.15 K	283.15 K	288.15 K	293.15 K	298.15 K	303.15 K	308.15 K	313.15 K
in acetone	0.00987	0.0112	0.0132	0.0155	0.019	0.0234	0.0299	0.0364
in acetonitrile	0.00131	0.00154	0.00195	0.00247	0.00326	0.00445	0.00597	0.00816
in methanol	0.00111	0.00128	0.00156	0.00209	0.00277	0.00361	0.00508	0.00772
